Assay results published in patent publication US8455399B2, “N-(4-perfluoroalkyl-phenyl)-4-triazolyl-benzamides as insecticides” (Syngenta Crop Protection LLC, priority 2009, dated 2013).

How the values were obtained:
Assay type in all cases: in vivo
Thrips tabaci = Thrips tabaci (onion thrips) leaf disc spray test; settings: foliar, 168 h, 200 ppm sprayed on sunflower leaf discs, population of mixed ages, mortality after 7 days
Experimental: Thrips Tabaci (Onion Thrips): Sunflower leaf discs were placed on agar in a 24-well microtiter plate and sprayed with test solutions at an application rate of 200 ppm. After drying, the leaf discs were infested with an […] population of mixed ages. After an incubation period of 7 days, samples were checked for mortality.

Heliothis virescens = Heliothis virescens (tobacco budworm) egg/artificial diet test; settings: 96 h, 200 ppm (concentration in well 18 ppm), eggs 0-24 h old on artificial diet, egg mortality, larval mortality, growth regulation after 4 days
Experimental: Heliothis Virescens (Tobacco Budworm): Eggs (0-24 h old) were placed in 24-well microtiter plate on artificial diet and treated with test solutions at an application rate of 200 ppm (concentration in well 18 ppm) by pipetting. After an incubation period of 4 days, samples were checked for egg mortality, larval mortality, and growth regulation.

Diabrotica balteata = Diabrotica balteata (corn root worm) artificial diet test; settings: 120 h, 200 ppm (concentration in well 18 ppm), L2 larvae, larval mortality and growth regulation after 5 days
Experimental: (§1) Diabrotica Balteata (Corn Root Worm): A 24-well microtiter plate (MTP) with artificial diet was treated with test solutions at an application rate of 200 ppm (concentration in well 18 ppm) by pipetting. After drying, the MTP's were infested with L2 larvae (6-10 per well). After an incubation period of 5 days, samples were checked for larval mortality and growth regulation.

Spodoptera littoralis = Spodoptera littoralis (Egyptian cotton leafworm) leaf disc spray test; settings: foliar, 72 h, 200 ppm sprayed on cotton leaf discs, 5 L1 larvae, mortality, feeding behavior, growth regulation 3 days after treatment
Excerpt: Spodoptera Littoralis (Egyptian Cotton Leafworm): Cotton leaf discs were placed on agar in a 24-well microtiter plate and sprayed with test solutions at an application rate of 200 ppm. After drying, the leaf discs were infested with 5 L1 larvae. The samples were checked for mortality, feeding behavior, and growth regulation 3 days after treatment (DAT).

Plutella xylostella = Plutella xylostella (diamond back moth) artificial diet test; settings: 144 h, 200 ppm (concentration in well 18 ppm), L2 larvae, larval mortality and growth regulation after 6 days
Experimental: as §1, with “Plutella Xylostella (Diamond Back Moth):” for “Diabrotica Balteata (Corn Root Worm): A”, “(7-12” for “(6-10”, “6” for “5”

Tetranychus urticae = Tetranychus urticae (two-spotted spider mite) leaf disc spray test; settings: foliar, 192 h, 200 ppm sprayed on bean leaf discs, mite populations of mixed ages, egg, larval and adult mortality 8 days later
Excerpt: Tetranychus Urticae (Two-Spotted Spider Mite): Bean leaf discs on agar in 24-well microtiter plates were sprayed with test solutions at an application rate of 200 ppm. After drying, the leaf discs are infested with mite populations of mixed ages. 8 days later, discs are checked for egg mortality, larval mortality, and adult mortality.

Measured: pest or weed control at 200 ppm

N#Cc1ccc(C(=O)Nc2cc(C(=O)Nc3c(Br)cc(C(F)(C(F)(F)F)C(F)(F)C(F)(F)F)cc3Br)ccc2-n2cncn2)cc1 (stereo not shown) [D8, 3-(4-cyanobenzoylamino)-N-[2,6-dibromo-4-(1,2,2,3,3,3-hexafluoro-1-trifluoromethylpropyl)phenyl]-4-(1,2,4-triazol-1-yl)benzamide]
not listed: Tetranychus urticae
≥ 80%: all other assays above

Cc1cc(C(F)(C(F)(F)F)C(F)(F)F)cc(C)c1NC(=O)c1ccc(-n2cncn2)c(NC(=O)c2ccc(F)cc2)c1 [D1, 3-(4-Fluorobenzoylamino)-N-[2,6-dimethyl-4-(1,2,2,2-tetrafluoro-1-trifluoromethyl-ethyl)phenyl]-4-(1,2,4-triazol-1-yl)benzamide]
≥ 80%: Heliothis virescens | Diabrotica balteata | Spodoptera littoralis | Plutella xylostella

CCc1cc(C(F)(C(F)(F)F)C(F)(F)C(F)(F)F)cc(C)c1NC(=O)c1ccc(-n2cncn2)c(NC(=O)c2ccc(C#N)cc2)c1 (stereo not shown) [D5, 3-(4-Cyanobenzoylamino)-N-[2-ethyl-4-(1,2,2,3,3,3-hexafluoro-1-trifluoromethyl-propyl)-6-methylphenyl]-4-(1,2,4-triazol-1-yl)benzamide]
≥ 80%: Heliothis virescens | Spodoptera littoralis | Plutella xylostella

Cc1cc(C(F)(C(F)(F)F)C(F)(F)F)cc(C)c1NC(=O)c1ccc(-n2cncn2)c([N+](=O)[O-])c1 [A1, N-[2,6-Dimethyl-4-(1,2,2,2-tetrafluoro-1-trifluoromethylethyl)phenyl]-3-nitro-4-(1,2,4-triazol-1-yl)benzamide]
not listed: Thrips tabaci
≥ 80%: all other assays above

CCc1cc(C(F)(C(F)(F)F)C(F)(F)C(F)(F)F)cc(C)c1NC(=O)c1ccc(-n2cncn2)c(NC(=O)c2ccc(F)cc2Cl)c1 (stereo not shown) [D4, 3-(2-Chloro-4-fluorobenzoylamino)-N-[2-ethyl-4-(1,2,2,3,3,3-hexafluoro-1-trifluoromethylpropyl)-6-methylphenyl]-4-(1,2,4-triazol-1-yl)benzamide]
≥ 80%: all assays above

CCc1cc(C(F)(C(F)(F)F)C(F)(F)C(F)(F)F)cc(C)c1NC(=O)c1ccc(-n2cncn2)c(NC(=O)c2ccc(F)cc2)c1 (stereo not shown) [D6, 3-(4-Fluorobenzoylamino)-N-[2-ethyl-4-(1,2,2,3,3,3-hexafluoro-1-trifluoromethyl-propyl)-6-methylphenyl]-4-(1,2,4-triazol-1-yl)benzamide]
≥ 80%: all assays above

CCc1cc(C(F)(C(F)(F)F)C(F)(F)C(F)(F)F)cc(C)c1NC(=O)c1ccc(-n2cncn2)c([N+](=O)[O-])c1 (stereo not shown) [A3, N-[2-Ethyl-4-(1,2,2,3,3,3-hexafluoro-1-trifluoromethylpropyl)-6-methylphenyl]-3-nitro-4-(1,2,4-triazol-1-yl)benzamide]
≥ 80%: all assays above

Cc1cc(C(F)(C(F)(F)F)C(F)(F)F)cc(C)c1NC(=O)c1ccc(-n2cncn2)c(N)c1 [B1, 3-Amino-N-[2,6-dimethyl-4-(1,2,2,2-tetrafluoro-1-trifluoromethylethyl)phenyl]-4-(1,2,4-triazol-1-yl)benzamide]
≥ 80%: Heliothis virescens | Tetranychus urticae

CCc1cc(C(F)(C(F)(F)F)C(F)(F)F)cc(CC)c1NC(=O)c1ccc(-n2cncn2)c(NC(=O)c2ccc(F)cc2)c1 [D2, 3-(4-fluorobenzoylamino)-N-[2,6-diethyl-4-(1,2,2,2-tetrafluoro-1-trifluoromethylethyl)phenyl]-4-(1,2,4-triazol-1-yl)benzamide]
not listed: Tetranychus urticae
≥ 80%: all other assays above

O=C(Nc1cc(C(=O)Nc2c(Br)cc(C(F)(C(F)(F)F)C(F)(F)C(F)(F)F)cc2Br)ccc1-n1cncn1)c1ccc(F)cc1 (stereo not shown) [D7, 3-(4-Fluorobenzoylamino)-N-[2,6-dibromo-4-(1,2,2,3,3,3-hexafluoro-1-trifluoromethylpropyl)phenyl]-4-(1,2,4-triazol-1-yl)benzamide]
not listed: Tetranychus urticae
≥ 80%: all other assays above

CCc1cc(C(F)(C(F)(F)F)C(F)(F)F)cc(CC)c1NC(=O)c1ccc(-n2cncn2)c(N)c1 [B2, 3-amino-N-[2,6-diethyl-4-(1,2,2,2-tetrafluoro-1-trifluoromethylethyl)phenyl]-4-(1,2,4-triazol-1-yl)benzamide]
not listed: Thrips tabaci
≥ 80%: all other assays above

Cc1c(C(=O)Nc2cc(C(=O)Nc3c(Br)cc(C(F)(C(F)(F)F)C(F)(F)C(F)(F)F)cc3Br)ccc2-n2cncn2)cccc1[N+](=O)[O-] (stereo not shown) [D10, 3-(2-Methyl-3-nitrobenzoylamino)-N-[2,6-dibromo-4-(1,2,2,3,3,3-hexafluoro-1-trifluoromethylpropyl)phenyl]-4-(1,2,4-triazol-1-yl)benzamide]
≥ 80%: all assays above

CCc1cc(C(F)(C(F)(F)F)C(F)(F)C(F)(F)F)cc(C)c1NC(=O)c1ccc(-n2cncn2)c(N)c1 (stereo not shown) [B3, 3-Amino-N-[2-ethyl-4-(1,2,2,3,3,3-hexafluoro-1-trifluoromethylpropyl)-6-methyl-phenyl]-4-(1,2,4-triazol-1-yl)benzamide]
not listed: Thrips tabaci
≥ 80%: all other assays above

CCc1cc(C(F)(C(F)(F)F)C(F)(F)F)cc(CC)c1NC(=O)c1ccc(-n2cncn2)c([N+](=O)[O-])c1 [A2, N-[2,6-Diethyl-4-(1,2,2,2-tetrafluoro-1-trifluoromethylethyl)phenyl]-3-nitro-4-(1,2,4-triazol-1-yl)benzamide]
≥ 80%: Diabrotica balteata | Spodoptera littoralis

CCc1cc(C(F)(C(F)(F)F)C(F)(F)C(F)(F)F)cc(C)c1NC(=O)c1ccc(-n2cncn2)c(NC(=O)c2cccc([N+](=O)[O-])c2C)c1 (stereo not shown) [D3, 3-(2-Methyl-3-nitrobenzoylamino)-N-[2-ethyl-4-(1,2,2,3,3,3-hexafluoro-1-trifluoromethylpropyl)-6-methylphenyl]-4-(1,2,4-triazol-1-yl)benzamide]
≥ 80%: Heliothis virescens | Tetranychus urticae | Spodoptera littoralis | Plutella xylostella

O=C(Nc1c(Br)cc(C(F)(C(F)(F)F)C(F)(F)C(F)(F)F)cc1Br)c1ccc(-n2cncn2)c(NC(=O)c2ccc(F)cc2Cl)c1 (stereo not shown) [D9, 3-(2-Chloro-4-fluorobenzoylamino)-N-[2,6-dibromo-4-(1,2,2,3,3,3-hexafluoro-1-trifluoromethylpropyl)phenyl]-4-(1,2,4-triazol-1-yl)benzamide]
≥ 80%: all assays above

Nc1cc(C(=O)Nc2c(Br)cc(C(F)(C(F)(F)F)C(F)(F)C(F)(F)F)cc2Br)ccc1-n1cncn1 (stereo not shown) [B4, 3-amino-N-[2,6-dibromo-4-(1,2,2,3,3,3-hexafluoro-1-trifluoromethylpropyl)-phenyl]-4-(1,2,4-triazol-1-yl)benzamide]
≥ 80%: Heliothis virescens | Tetranychus urticae | Spodoptera littoralis | Plutella xylostella
